Source: article PMC3335078, “Length and Amino Acid Sequence of Peptides Substituted for the 5-HT3A Receptor M3M4 Loop May Affect Channel Expression and Desensitization” (PLoS ONE, 2012)

Key:
[1] = target: T1, 5-HT3A-A6 (M3M4 loop replaced by six alanines) (Mus musculus, UniProt P23979)
T1 sequence (P23979 with tags, fused parts or gaps isoform P23979-2 limits assumed): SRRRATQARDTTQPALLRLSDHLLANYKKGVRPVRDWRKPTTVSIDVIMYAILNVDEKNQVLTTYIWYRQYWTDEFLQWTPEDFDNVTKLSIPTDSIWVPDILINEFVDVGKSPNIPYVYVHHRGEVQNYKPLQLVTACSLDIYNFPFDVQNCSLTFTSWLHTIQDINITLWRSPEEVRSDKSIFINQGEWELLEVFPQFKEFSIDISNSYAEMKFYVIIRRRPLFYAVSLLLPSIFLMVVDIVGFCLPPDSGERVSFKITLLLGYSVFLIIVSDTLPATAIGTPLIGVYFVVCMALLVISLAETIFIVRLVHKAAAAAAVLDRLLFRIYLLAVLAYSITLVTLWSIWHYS
Excerpt: (§1) The mouse 5-HT3A cDNA with an N-terminal V5 epitope tag was cloned into the pXOON vector as previously described, and is referred to in this paper as “wild-type” (WT). The starting construct for all of the M3M4 loop replacement constructs used in this work was the 5-HT3A-ΔM3M4 construct formed by splicing the cytoplasmic end of M3 (M3-LVHK/QDLQRP…) to the cytoplasmic end of M4 (…WLRVGY/VLDRLL-M4). The splice was made at the site of the “/” to yield the sequence M3-LVHK/VLDRLL-M4 [34]. This removed 115 residues predicted to form the M3M4 loop.
(§2) The construction of the 5-HT3A-glvM3M4 chimera with the 5-HT3A M3M4 loop replaced by the GLIC heptapeptide M3M4 loop (SQPARAA) was described previously. Point mutations, alanine and Gly-Ser-Ala insertions into the 5-HT3A-ΔM3M4 construct were generated with the Quikchange site directed mutagenesis procedure (Stratagene, La Jolla, CA). The entire coding region of all mutant constructs was verified by DNA sequencing (Albert Einstein College of Medicine DNA Sequencing Facility). The pXOON plasmid was linearized using NheI and capped mRNA prepared with T7 RNA polymerase (mMessage mMachine, Ambion, Austin, TX).
Use of Xenopus laevis in this study was carried out in strict accordance with the recommendations in the Guide for the Care and Use of Laboratory Animals of the National Institutes of Health. The protocol was approved by the Albert Einstein College of Medicine Animal Care and Use Committee (Protocol Number: 20081201). All surgery was performed under tricaine anesthesia, and all efforts were made to minimize suffering. Oocyctes were harvested from Xenopus (Nasco Science, Fort Atkinson, WI) anesthetized with 0.15% tricaine. Oocyctes were defolliculated by incubation in 2 mg ml^−1 Type 1A collagenase (Sigma-Aldrich, St. Louis, MO) in OR2 (85 mM NaCl, 2 mM KCl, 1 mM MgCl2, and 5 mM HEPES; pH adjusted to 7.5 with NaOH) for a 60 or 75 min. Oocytes were washed in OR2 and stored at 16°C in SOS medium: 100 mM NaCl, 2 mM KCl, 1 mM MgCl2, 1.8 mM CaCl2 5 mM HEPES, pH 7.5 with 100 IU ml^−1 penicillin, 100 µg ml^−1 streptomycin, and 250 ng ml^−1 amphotericin B (Invitrogen, Carlsbad, CA) and 5% horse serum (Sigma-Aldrich). 24 hrs following isolation, oocyctes were injected with 23 nl (2.3 ng) of mRNA and were kept in SOS media for 2–5 d at 16°C.
Currents were recorded under two-electrode voltage clamp from oocytes 2–5 d post-injection as described previously. […] The perfusion chamber volume was 200 µl. A 3 M KCl/agar bridge connected the ground electrode to the bath. The holding potential was maintained at −60 mV. […] Salts were purchased from Fisher Scientific (Hampton, NH) or Sigma-Aldrich.
Desensitization rates were determined by fitting a single exponential decay function to the current data with Prism 4 software (GraphPad Software). Significant differences compared with wild-type were determined by a one-way ANOVA (p<0.05) using Dunnett's multiple comparison post-hoc test (p<0.05). […]

[2] = target: T2, 5-HT3A-A5 (M3M4 loop replaced by five alanines) (Mus musculus, UniProt P23979); test: Two-electrode voltage clamp, oocytes expressing 5-HT3A-A5; assay type: cell-based
T2 construct: expressed in transfected cells; host or cells: Xenopus laevis oocytes injected with mRNA
T2 sequence (P23979 with tags, fused parts or gaps isoform P23979-2 limits assumed): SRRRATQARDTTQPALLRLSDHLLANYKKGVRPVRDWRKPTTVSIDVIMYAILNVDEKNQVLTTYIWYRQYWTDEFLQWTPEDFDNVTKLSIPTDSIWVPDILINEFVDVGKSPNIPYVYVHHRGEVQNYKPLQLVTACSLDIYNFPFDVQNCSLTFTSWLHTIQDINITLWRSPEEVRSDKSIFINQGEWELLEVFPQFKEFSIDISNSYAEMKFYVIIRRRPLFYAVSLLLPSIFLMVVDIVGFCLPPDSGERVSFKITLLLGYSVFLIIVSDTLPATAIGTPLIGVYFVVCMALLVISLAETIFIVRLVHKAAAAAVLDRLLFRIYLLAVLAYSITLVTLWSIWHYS
Excerpt: as §1, §2
Use of Xenopus laevis in this study was carried out in strict accordance with the recommendations in the Guide for the Care and Use of Laboratory Animals of the National Institutes of Health. The protocol was approved by the Albert Einstein College of Medicine Animal Care and Use Committee (Protocol Number: 20081201). All surgery was performed under tricaine anesthesia, and all efforts were made to minimize suffering. Oocyctes were harvested from Xenopus (Nasco Science, Fort Atkinson, WI) anesthetized with 0.15% tricaine. […]
(§3) Currents were recorded under two-electrode voltage clamp from oocytes 2–5 d post-injection as described previously. […]
(§4) Desensitization rates were determined by fitting a single exponential decay function to the current data with Prism 4 software (GraphPad Software). Significant differences compared with wild-type were determined by a one-way ANOVA (p<0.05) using Dunnett's multiple comparison post-hoc test (p<0.05). […]

[3] = target: T3, 5-HT3A construct with single glycine in place of the single alanine (Mus musculus, UniProt P23979, DELINS338-452G); test: Two-electrode voltage clamp, oocytes expressing single glycine loop construct; assay type: cell-based; details: Xenopus oocytes, data not shown
T3 construct: expressed in transfected cells; host or cells: Xenopus laevis oocytes injected with mRNA
Excerpt: as §1
(§5) The construction of the 5-HT3A-glvM3M4 chimera with the 5-HT3A M3M4 loop replaced by the GLIC heptapeptide M3M4 loop (SQPARAA) was described previously. Point mutations, alanine and Gly-Ser-Ala insertions into the 5-HT3A-ΔM3M4 construct were generated with the Quikchange site directed mutagenesis procedure (Stratagene, La Jolla, CA). […]
as §3, §4

[4] = target: T4, 5-HT3A construct with single proline in place of the single alanine (Mus musculus, UniProt P23979, DELINS338-452P); test: Two-electrode voltage clamp, oocytes expressing single proline loop construct; assay type: cell-based; details: Xenopus oocytes, data not shown
T4 construct: expressed in transfected cells; host or cells: Xenopus laevis oocytes injected with mRNA
Excerpt: as §1, §5, §3, §4

5-HT3A-A1 = target: T5, 5-HT3A-A1 (Mus musculus, UniProt P23979, DELINS338-452A); test: Radioactive 5-HT binding to oocytes expressing 5-HT3A-A1; details: 150 nM [3H]5-HT + 10 µM 5-HT, 5 min, 45 s cold wash
T5 construct: expressed in transfected cells; host or cells: Xenopus laevis oocytes injected with mRNA
Protocol: Assays were terminated by five washes with ice cold CFFR buffer, followed by solubilization of the oocytes individually with 200 µl 5% SDS. Total wash time was 45 s. […] All data points represent the average of at least fifteen individual oocytes derived from three separate oocyte isolations.
To determine the extent of non-specific binding, all binding experiments were performed in parallel with diethylpyrocarbonate-(DEPC)-treated-water injected oocytes or uninjected oocytes.

[5] = 10 µM 5-HT, Xenopus oocytes, -60 mV

T5 sequence (P23979 with tags, fused parts or gaps isoform P23979-2 DELINS338-452A limits assumed): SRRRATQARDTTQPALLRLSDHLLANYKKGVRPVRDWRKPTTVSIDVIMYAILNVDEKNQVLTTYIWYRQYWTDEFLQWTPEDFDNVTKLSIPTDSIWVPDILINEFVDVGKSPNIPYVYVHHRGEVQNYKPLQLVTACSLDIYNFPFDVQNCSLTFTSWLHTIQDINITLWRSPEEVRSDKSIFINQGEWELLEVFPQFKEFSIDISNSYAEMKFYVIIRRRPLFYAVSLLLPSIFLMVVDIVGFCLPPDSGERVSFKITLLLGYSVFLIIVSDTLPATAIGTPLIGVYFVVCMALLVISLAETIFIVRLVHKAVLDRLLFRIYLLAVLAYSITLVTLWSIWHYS
T4 sequence (P23979 with tags, fused parts or gaps isoform P23979-2 DELINS338-452P limits assumed): as the sequence (P23979 with tags, fused parts or gaps isoform P23979-2 DELINS338-452A limits assumed) above, with A315P counted along it
T3 sequence (P23979 with tags, fused parts or gaps isoform P23979-2 DELINS338-452G limits assumed): as the sequence (P23979 with tags, fused parts or gaps isoform P23979-2 DELINS338-452A limits assumed) above, with A315G counted along it

What does the source list for `NCCc1c[nH]c2ccc(O)cc12` [5-HT, 5-hydroxytryptamine]?
10–90% Activation rise time ([1]; 10 µM 5-HT): 1017 ± 23 ms; Imax (peak current) [1, 5]: 6400±1100 nA; Desensitization time constant τ ([1]; prolonged 10 µM 5-HT): 77 ± 6 s; 10–90% Activation rise time ([2]; 10 µM 5-HT): 797 ± 108 ms; Imax (peak current) [2, 5]: 2500±500 nA; Desensitization time constant τ ([2]; prolonged 10 µM 5-HT, may be limited by solution exchange): 6 ± 1 s; 5-HT induced current [3]: neither construct generated any 5-HT induced currents; 5-HT induced current [4]: neither construct generated any 5-HT induced currents; Radiolabeled 5-HT binding to oocytes (5-HT3A-A1): undetectable
